Laboratory results: patent publication US7476670B2, “Purine derivatives, method for preparing, pharmaceutical compositions and novel use” (Aventis Pharma S.A., priority 2003, dated 2009)
Values after ≈ are worked out from the molar mass of the structure shown. Where a name gives a salt, the structure may show the parent alone. Read-outs that look alike come from different tables or passages of the source.

Columns and labels:
[1] = biological target: CaCiv1 (Candida albicans, UniProt A0A1D8PH53); assay: Assay for inhibition of CIV-CDK (CIV1) activity; assay type: biochemical
Description: 1) Assay for Inhibition of CIV-CDK (CIV1) Activity
a) Preparation of the Reagents

[2] = tested on: Candida albicans; assay: Minimum inhibitory concentration in liquid medium, micro method (NCCLS M27-A); assay type: cell-based; details: at least 80% inhibition of growth, read after 24-48 h at 37° C., RPMI 1640, read-out: MIC Candida albicans
Method: (§1) The assay is carried out in a final volume of 40 μl; all the reagents are prepared in a buffer: • 50 mM HEPES pH 7.5 • 0.03% triton X100 • 10 mM MgCl2 • 5% Glycerol • 1 mM DTT 10 μl of the 10-times concentrated inhibitor are added to 5 μl of enzyme (75 ng final concentration), and 5 μl of peptide (1 μM final concentration), then 2.5 μl of incubation buffer containing 40 μM ATP and 2.5 μl of radiolabeled ATP, [^33P]ATP (500 nCi), are added. After incubation for 15 minutes at ambient temperature, 10 μl of incubation buffer containing 192 nM of substrate. […] Reference method for broth dilution antifungal susceptibility testing of yeasts. Approved Standard M27-A. NCCLS, Villanova, Pa.); the minimum concentration with which a visible decrease is observed in the cloudiness of the cell growth (at least 80% compared to a control without product) is the Minimum Inhibitory Concentration (MIC) of the antifungal agent with respect to the strain tested.
(§2) RPMI 1640 medium (liquid) without L-glutamine is supplemented with L-glutamine (0.3 g/l or 10.5 ml of a solution at 200 mM) and buffered with 34.54 g/l (0.165 M) of morpholinepropanesulfonic acid (MOPS). The medium is sterilized by filtration. 100 μl of RPMI medium are distributed into each well of a 96-well plate. The appropriate volume. of the antifungal solution is distributed in the first column of the microplate and supplemented with 200 μl of medium. Doubling dilutions are made so as to establish a range of 11 concentrations in each line of the microplate. The 12th well of each row will serve as a growth control. The cell suspension is prepared from a culture (liquid or agar) or from a frozen vial, and is diluted in RPMI medium so as to obtain a cell suspension at 5×10^3−2×10^4 cells/ml. 100 μl of the cell suspension are distributed in the microplate. For all species of Candida, the MIC is read after 24-48 h, and for Cryptococcus and Aspergillus after 48-72 h, of incubation at 37° C. in a normal atmosphere. The MIC is read by visual reading, determining the well which contains the lowest dose of antifungal agent which causes at least 80% inhibition of the growth of the fungus.

[3] = tested on: Candida glabrata; assay: as above; assay type: cell-based; details: Nakaseomyces glabratus; at least 80% inhibition of growth, read after 24-48 h at 37° C., RPMI 1640; read-out: MIC Candida glabrata
Method: as §1, §2

[4] = biological target: JNK3 kinase (Homo sapiens, UniProt P53779); assay: Assay for inhibition of JNK3 activity; assay type: biochemical; details: fluorescence polarization, ATP 6 μM; read-out: IC50s expressed as micromolar
Method: The inhibition of the kinase activity is determined by fluorescence polarization, the JNK3 kinase phosphorylates a peptide detected by adding an anti-phosphopeptide antibody coupled to a fluorescent label.
The assay is carried out in a final volume of 30 μl; all the reagents are prepared in a buffer: • 50 mM HEPES pH 7.5 • 0.03% triton X100 • 10 mM MgCl2 • 5% Glycerol • 1 mM DTT 10 μl of the 10-times concentrated inhibitor are added to 5 μl of enzyme (40 ng final concentration), and 5 μl of incubation buffer containing 100 ng of substrate and 10 μl of ATP (6 μM final concentration) are added.

[5] = biological target: T1, SRC kinase (Homo sapiens, UniProt P12931); assay: Assay for inhibition of SRC kinase activity; assay type: biochemical; details: fluorescence polarization, read-out: percentage inhibition at 20 μM
T1 construct: purchased Upstate Biotechnology 14-117
Method: 2) Assay for Inhibition of SRC Kinase Activity
The inhibition is determined by fluorescence polarization, the […] kinase phosphorylates a peptide detected by adding an anti-phosphopeptide antibody coupled to a fluorescent label.
The assay is carried out in a final volume of 50 μl; all the reagents are prepared in a buffer: • 25 mM HEPES/NaOH pH 7.6 • 5 mM MgCl2 • 2 mM MnCl2 • 50 μM Na2VO4 5 μl of the 10-times concentrated inhibitor are added to 25 μl of enzyme (12 U/ml final concentration), (Upstate Biotechnology ref 14-117). After incubation for 5 minutes at ambient temperature, 10 μl of PolyGluTyr 4/1 (150 ng/ml final concentration) and 10 μl of ATP (5 μM final concentration) are added. The detection is carried out after incubation for 20 minutes at ambient temperature. • Results obtained expressed as percentage inhibition at 20 μM • Example 8 98% • Example 15 99% • Example 20 99% • Example 24 99% • Example 27 95% • Example 30 99% • Example 32 100% • Example 38 95% 3) Assay for Inhibition of CDK2 Activity

[6] = biological target: Cyclin Dependent kinase 2 (CDK2) (Homo sapiens, UniProt P24941); assay: Assay for inhibition of CDK2 activity; assay type: biochemical; details: [33P]ATP, read-out: percentage inhibition at 20 μM
Method: The inhibition of the kinase activity of Cyclin Dependent kinase 2 (CDK2) is determined by measuring the phosphorylation of its substrate peptide.
The assay is carried out in a final volume of 50 μl.
The incubation buffer as follows:
• 50 mM Hepes/NaOH pH 7.5 • 10 mM MgCl2 • 1 mM DTT 5 μl of the 10-times concentrated inhibitor are added to 25 μl of incubation buffer containing 0.8 U/μL final concentration of the enzyme; 10 μL of incubation buffer containing 0.0025 mg/ml of peptide substrate are then added and, finally, 10 μL of incubation buffer containing 2 mM ATP and radiolabeled ATP, [^33P]ATP (0.25 μCi), are added. The reaction is stopped after incubation for 10 minutes at 37° C. • Results obtained expressed as percentage inhibition at 20 μM • Example 2 97% • Example 27 97% • Example 30 99% 4) Assay for Inhibition of CDK1 Activity

[7] = tested on: Abl kinase; assay: Assay for inhibition of Abl activity; assay type: biochemical; details: fluorescence polarization
Method: The inhibition of the kinase activity is determined by fluorescence polarization, the Abl kinase phosphorylates a peptide detected by adding an anti-phosphopeptide antibody coupled to a fluorescent label.
The assay is carried out in a final volume of 50 μl; all the reagents are prepared in a buffer: • 20 mM Hepes/NaOH pH 7.5 • 5 mM MgCl2 • 100 μM Na2VO4 • 1 mM DTT • 100 μM EDTA/NaOH • 0.01% Brij35 5 μl of the 10-times concentrated inhibitor are added to 25 μl of enzyme (1000 U/ml final concentration), (Calbiochem ref 102555). After incubation for 5 minutes at ambient temperature, 10 μL of PolyGT (400 ng/ml final concentration) and 10 μL of ATP (5 μM final concentration) are added. The detection is carried out after incubation for 15 minutes at 30° C. • Results obtained expressed as percentage inhibition at 20 μM • Example 24 100% • Example 2 100% • Example 32 100% 6) Assay for Inhibition of ZAP Kinase Activity

[8] = CaCiv1 with Cdk2 substrate, [33P]ATP, 30 min ambient temperature, read-out: IC50 as micromolar

T1 sequence (P12931 whole entry): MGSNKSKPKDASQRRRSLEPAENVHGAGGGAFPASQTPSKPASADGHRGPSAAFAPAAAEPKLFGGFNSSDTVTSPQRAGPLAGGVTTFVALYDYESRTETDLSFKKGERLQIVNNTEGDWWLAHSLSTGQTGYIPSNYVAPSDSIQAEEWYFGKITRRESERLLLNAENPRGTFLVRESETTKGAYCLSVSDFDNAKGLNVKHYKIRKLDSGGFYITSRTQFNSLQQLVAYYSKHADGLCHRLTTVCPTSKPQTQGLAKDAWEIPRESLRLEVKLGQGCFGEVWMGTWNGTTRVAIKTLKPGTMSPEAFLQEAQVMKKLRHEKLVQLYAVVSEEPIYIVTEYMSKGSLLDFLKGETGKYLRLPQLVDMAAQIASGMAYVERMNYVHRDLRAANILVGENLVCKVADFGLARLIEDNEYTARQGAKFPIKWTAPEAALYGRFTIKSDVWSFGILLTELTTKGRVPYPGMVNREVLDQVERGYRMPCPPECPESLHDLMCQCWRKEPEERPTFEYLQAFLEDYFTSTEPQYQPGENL
JNK3 kinase, sequence (P53779 whole entry): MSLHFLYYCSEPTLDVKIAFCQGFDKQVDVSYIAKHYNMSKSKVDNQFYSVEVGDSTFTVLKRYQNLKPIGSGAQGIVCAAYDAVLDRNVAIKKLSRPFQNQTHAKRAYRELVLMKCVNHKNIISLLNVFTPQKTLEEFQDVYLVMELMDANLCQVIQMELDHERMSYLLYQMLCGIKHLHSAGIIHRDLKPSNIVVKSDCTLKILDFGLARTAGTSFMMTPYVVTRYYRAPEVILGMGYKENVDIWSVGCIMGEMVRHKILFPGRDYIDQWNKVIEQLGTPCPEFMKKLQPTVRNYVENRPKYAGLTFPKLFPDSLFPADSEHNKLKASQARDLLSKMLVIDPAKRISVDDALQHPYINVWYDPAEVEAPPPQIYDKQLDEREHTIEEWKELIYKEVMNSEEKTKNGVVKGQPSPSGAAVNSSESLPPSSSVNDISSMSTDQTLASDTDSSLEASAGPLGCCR
CaCiv1, sequence (A0A1D8PH53 entry or part of it): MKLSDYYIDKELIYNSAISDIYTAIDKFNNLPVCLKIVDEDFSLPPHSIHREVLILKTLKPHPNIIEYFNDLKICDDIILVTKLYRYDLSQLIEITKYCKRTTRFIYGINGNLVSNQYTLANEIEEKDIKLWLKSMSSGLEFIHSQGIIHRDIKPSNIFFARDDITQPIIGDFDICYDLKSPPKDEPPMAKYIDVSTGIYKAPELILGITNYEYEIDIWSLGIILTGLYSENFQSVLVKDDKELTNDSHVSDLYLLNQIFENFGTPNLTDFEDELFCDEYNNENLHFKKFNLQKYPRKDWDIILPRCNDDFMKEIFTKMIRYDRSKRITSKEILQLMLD

Question: With Cc1cc2ncn(-c3nc(N[C@H]4CC[C@H](N)CC4)nc4[nH]cnc34)c2cc1C [Example 5, Trans-N-[6-(5,6-dimethyl-1H-benzimidazol-1-yl)-9H-purin-2-yl]-1,4-cyclohexanediamine] as the compound, how does the IC50 [1, 8] read?
Answer: 1.1 µM

Question: And the MIC [2]?
Answer: 64 µg/mL (≈ 170 µM)

Question: And the MIC [3]?
Answer: 64 µg/mL (≈ 170 µM)

Question: N[C@H]1CC[C@H](Nc2nc(N3CCc4cc(Cl)ccc43)c3nc[nH]c3n2)CC1 [Example 7, Trans-N-[6-(5-chloro-2,3-dihydro-1H-indol-1-yl)-9H-purin-2-yl]-1,4-cyclohexanediamine] was tested. Which IC50 [1, 8] did it give?
Answer: 3.6 µM

Question: For COc1ccc2c(c1)ncn2-c1nc(N[C@H]2CC[C@H](N)CC2)nc2[nH]cnc12 [Example 15, Trans-N-[6-(5-methoxy-1H-benzimidazol-1-yl)-9H-purin-2-yl]-1,4-cyclohexanediamine dihydrochloride], which IC50 [4] is on record?
Answer: 0.5 µM

Question: And the inhibition at 20 µM [5]?
Answer: 99%

Question: What about the IC50 [1] of the same compound?
Answer: 0.3 µM

Question: Which IC50 [1] does the source give for N[C@H]1CC[C@H](Nc2nc(-n3ccc4ccccc43)c3nc[nH]c3n2)CC1 [Example 16, Trans-N-[6-(1H-indol-1-yl)-9H-purin-2-yl]-1,4-cyclohexanediamine dihydrochloride] here?
Answer: 0.31 µM

Question: With CC[C@@H](CO)Nc1nc(-n2cnc3ccccc32)c2nc[nH]c2n1 [Example 27, (2S)-2-[[6-(1H-benzimidazol-1-yl)-9H-purin-2-yl]amino]-1-butanol] as the compound, how does the IC50 [4] read?
Answer: 0.29 µM

Question: And the inhibition at 20 µM [5]?
Answer: 95%

Question: And the inhibition at 20 µM [6]?
Answer: 97%

Question: What about the IC50 [1, 8] of the same compound?
Answer: 4.3 µM

Question: Which results are given for N[C@H]1CC[C@H](Nc2nc(N3CCc4cc(Br)ccc43)c3nc[nH]c3n2)CC1 [Example 32, Trans-N-[6-(5-bromo-2,3-dihydro-1H-indol-1-yl)-9H-purin-2-yl]-1,4-cyclohexanediamine]?
Answer: inhibition at 20 µM [5]: 100%; percentage inhibition at 20 μM [7]: 100%; MIC [2]: 64 µg/mL (≈ 149 µM); MIC [3]: 64 µg/mL (≈ 149 µM)

Question: With N[C@H]1CC[C@H](Nc2nc(N3CCc4cc(F)ccc43)c3nc[nH]c3n2)CC1 [Example 38, Trans-N-[6-(5-fluoro-2,3-dihydro-1H-indol-1-yl)-9H-purin-2-yl]-1,4-cyclohexanediamine dihydrochloride] as the compound, how does the IC50 [4] read?
Answer: 0.42 µM

Question: What about the inhibition at 20 µM [5] of the same compound?
Answer: 95%

Question: How did the IC50 [1, 8] turn out when CC(=O)c1ccc2c(c1)CCN2c1nc(N[C@H]2CC[C@H](N)CC2)nc2[nH]cnc12 [Example 39, Trans-1-[1-[2-[(4-aminocyclohexyl)amino]-9H-purin-6-yl]-2,3-dihydro-1H-indol-5-yl]ethanone] was run?
Answer: 3.6 µM

Question: N[C@H]1CC[C@H](Nc2nc(N3CCc4ccc(C(F)(F)F)cc43)c3nc[nH]c3n2)CC1 [Example 40, Trans-N-[6-[2,3-dihydro-6-(trifluoro-methyl)-1H-indol-1-yl)-9H-purin-2-yl]-1,4-cyclohexanediamine] was tested. Which IC50 [1, 8] did it give?
Answer: 0.2 µM

Question: With N[C@H]1CC[C@H](Nc2nc(N3CCc4cc(NC(=O)Cc5cccs5)ccc43)c3nc[nH]c3n2)CC1 [Example 41, Trans-N-[1-[2-[(4-aminocyclohexyl)amino]-9H-purin-6-yl]-2,3-dihydro-1H-indol-5-yl]-2-thiopheneacetamide] as the compound, how does the IC50 [1, 8] read?
Answer: 0.95 µM

Question: N[C@H]1CC[C@H](Nc2nc(N3CCc4cc(NC(=O)CCc5ccccc5)ccc43)c3nc[nH]c3n2)CC1 [Example 42, Trans-N-[1-[2-[(4-aminocyclohexyl)amino]-9H-purin-6-yl]-2,3-dihydro-1H-indol-5-yl]benzenepropanamide] was tested. Which IC50 [1, 8] did it give?
Answer: 3.3 µM

Question: Which IC50 [1, 8] does the source give for N[C@H]1CC[C@H](Nc2nc(N3CCc4cc(NC(=O)Nc5ccc(Cl)c(Cl)c5)ccc43)c3nc[nH]c3n2)CC1 [Example 43, Trans-N-[1-[2-[(4-aminocyclohexyl)amino]-9H-purin-6-yl]-2,3-dihydro-1H-indol-5-yl]-N′-(3,4-dichlorophenyl)urea] here?
Answer: 4.4 µM

Question: For N[C@H]1CC[C@H](Nc2nc(N3CCc4ccc([N+](=O)[O-])cc43)c3nc[nH]c3n2)CC1 [Example 44, Trans-N-[6-(6-nitro-2,3-dihydro-1H-indol-1-yl)-9H-purin-2-yl]-1,4-cyclohexanediamine], which IC50 [1, 8] is on record?
Answer: 0.02 µM

Question: CN(C)c1ccc(NC(=O)Nc2ccc3c(c2)CCN3c2nc(N[C@H]3CC[C@H](N)CC3)nc3[nH]cnc23)cc1 [Example 45, Trans-N-[1-[2-[(4-aminocyclohexyl)amino]-9H-purin-6-yl]-2,3-dihydro-1H-indol-5-yl]-N′-[4-(dimethylamino)phenyl]urea] was tested. Which IC50 [1, 8] did it give?
Answer: 1.3 µM

Question: Nc1ccc2c(c1)CCN2c1nc(N[C@H]2CC[C@H](N)CC2)nc2[nH]cnc12 [Example 46, Trans-N-[6-(5-amino-2,3-dihydro-1H-indol-1-yl)-9H-purin-2-yl]-1,4-cyclohexanediamine] was tested. Which IC50 [1, 8] did it give?
Answer: 2 µM
